Columns and labels:
[1] = design: method as in Johannessen, 2004; Patsalos, 2008; Lee, 2016; details: patients with epilepsy; ref Johannessen, 2004; Patsalos, 2008; Lee, 2016; cited from earlier work
[2] = target: T1, BCRP (Homo sapiens, UniProt Q9UNQ0); test: competitive substrate efflux assay (BODIPY-prazosin accumulation) in hCMEC/D3 cells; assay type: cell-based
T1 sequence (Q9UNQ0 1-655): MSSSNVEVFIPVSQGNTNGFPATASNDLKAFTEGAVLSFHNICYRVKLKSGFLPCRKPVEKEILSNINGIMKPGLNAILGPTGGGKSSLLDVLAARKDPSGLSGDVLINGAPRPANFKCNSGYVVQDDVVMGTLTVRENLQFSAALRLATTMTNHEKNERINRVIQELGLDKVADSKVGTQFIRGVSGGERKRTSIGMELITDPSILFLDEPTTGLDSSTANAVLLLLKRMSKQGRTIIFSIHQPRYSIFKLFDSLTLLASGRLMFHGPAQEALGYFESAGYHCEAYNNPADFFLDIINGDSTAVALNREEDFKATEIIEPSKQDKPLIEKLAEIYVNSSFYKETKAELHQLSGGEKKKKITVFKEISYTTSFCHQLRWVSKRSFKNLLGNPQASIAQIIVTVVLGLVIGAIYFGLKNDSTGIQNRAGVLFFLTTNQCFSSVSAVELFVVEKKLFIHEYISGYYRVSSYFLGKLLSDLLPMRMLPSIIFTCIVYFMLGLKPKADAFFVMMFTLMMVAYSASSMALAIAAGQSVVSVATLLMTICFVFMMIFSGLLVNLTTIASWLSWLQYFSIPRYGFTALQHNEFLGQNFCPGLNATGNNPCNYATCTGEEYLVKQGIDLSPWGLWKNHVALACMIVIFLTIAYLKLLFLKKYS
Experimental: The potential of ASMs to compete with a known fluorescent substrate of BCRP, BPZ in hCMEC/D3 cells was examined using a competitive substrate efflux assay that has previously been used in various studies. The interaction of CBZ, DCLB, OXC, TPM, and LEVI with BCRP was evaluated. Initially, hCMEC/D3 were seeded in 12‐well plates (cat. no. 150628, Nunc, Thermo Fisher Scientific, MA, USA) at 70‐80% confluency for 24 h. In this study, Ko143 was used for BCRP inhibition. The cultured cells were incubated at 37°C for half an hour in media containing BPZ with either the test ASMs or Ko143. Cells were washed with chilled 1X PBS three times and again incubated at 37°C for 1 h 30 min in BPZ‐free media with or without Ko143. Cells were washed three times with ice‐cold 1X PBS to terminate the assay. Cell lysis was performed by adding 1% triton X‐100, followed by incubating the cells for 15 min at 37°C. 20 µl of cell lysate was placed in 384‐well black assay plates for fluorescence detection (excitation at 488 nm; emission at 530 nm) to Infinite 200 PRO NanoQuant (Tecan, Zurich, Switzerland). The rest of the cell lysate was used for determining protein levels using the BCA protein estimation method to normalize the observed fluorescence intensity with total protein yield. The data were shown as a fold increment in intracellular fluorescence of BPZ relative to the control.

[3] = target: T1, BCRP; test: bidirectional transport assay across hCMEC/D3 cell monolayer with or without Ko143; details: for transport by BCRP (conclusion of bidirectional transport assay): ER ≥ 1.5 and significantly reduced by Ko143
Experimental: For transport assays, hCMEC/D3 cells were seeded on collagen type I‐coated Transwell inserts (polycarbonate 12‐well, pore size […]) (cat. no. CLS3460; Corning, NY, USA) at 80% confluency and cultured as described in section 2.5. In brief, the drug was dissolved in Hanks’ balanced salt solution supplemented with 10 mM HEPES, 1 mM Na‐Pyruvate, pH 7.4 at 37°C (transport buffer). Initially, both sides of the chamber were washed with 1X PBS and the assay was performed with pre‐warmed transport buffer. 0.5 ml or 1.5 ml of the drug solution, with or without BCRP‐specific inhibitor Ko143 (1 μM) was added to either the apical side or basolateral side of the monolayer, respectively, and fresh transport buffer was added to the opposite side. Aliquots of 100 μl samples were taken from the opposite sides every 30 min for 2 h, and the same amount of fresh transport buffer was added to the same chamber after each sampling. […] Concentrations of ASMs were evaluated by HPLC or LC/MS. Apparent permeability (Papp) is defined as the transport rate of ASM and efflux ratio (ER) was calculated as the ratio of Papp in the basolateral‐to‐apical (Papp(B→A)) direction to the Papp in the apical‐to‐basolateral (Papp(A→B)) direction. The samples were stored at −20°C until analysis. […] Fluorescence detection of lucifer yellow (excitation at 430 nm, and emission at 535 nm) was carried out with Infinite 200 PRO NanoQuant (Tecan, Zurich, Switzerland). […] All transport assays were performed in triplicate.
The calculation for apparent permeability coefficient, Papp, was performed as described before. Papp=dQr/dt/A×C0 where dQr/dt is the cumulative amount in the receiver side vs time in μM/s
A is the area of the cell monolayer
C0 is the initial concentration of the dosing solution (μM).
And, Efflux ratio=Papp(B−to−A)/Papp(A−to−B)

[4] = target: T1, BCRP; design: host or cells: MCF-7 cells overexpressing BCRP; details: previous study; cited from earlier work
[5] = target: T1, BCRP; test: vanadate-sensitive BCRP ATPase assay (membrane vesicles from MCF-7 cells overexpressing BCRP); assay type: biochemical; design: host or cells: MCF-7 cells overexpressing BCRP
Experimental: To assess the interaction between ASMs and BCRP, a vanadate‐sensitive ATPase assay was performed as per the manufacturer's instructions manual. […] After 10 min, 1x developer solution was added and kept for 2 min. To stop the reaction, 100 µL blocker solution was added and incubated for 30 min. at 37°C. The optical densities were measured at 620 nm using an Infinite 200 PRO NanoQuant (Tecan, Zurich, Switzerland) plate reader. 1 μM Ko143 was used as a positive control for BCRP inhibition. Ko143 was used at a concentration that is known to inhibit BCRP efficiently. The results were expressed as vanadate‐sensitive ATPase activity that is based on the difference in inorganic phosphate released between samples with and without vanadate. This will evaluate the ability of the test ASM to stimulate BCRP's baseline ATPase activity.

[6] = 5 μM, hCMEC/D3 monolayer, 1 μM Ko143
[7] = 10 μM, hCMEC/D3 monolayer, 1 μM Ko143

## CC[C@@H](C(N)=O)N1CCCC1=O [LEVI, levetiracetam]
[1]
  Therapeutic plasma concentration range: 35 to 120 µM
[2]
  intracellular accumulation of BPZ in hCMEC/D3 cells: did not affect
[3]; hCMEC/D3 monolayer
  transport by BCRP (conclusion of bidirectional transport assay): not
[3]; hCMEC/D3 monolayer, data not shown
  directional transport: did not show any directional transport
[3]; human, pH 7.4, Efflux ratio (ER) without inhibitor, at all the tested concentrations, hCMEC/D3 monolayer
  efflux ratio at 2 h: < 1.5
[4]
  stimulation of BCRP ATPase activity: no significant stimulation

## O=C1CC(=O)N(c2ccccc2)c2cc(Cl)ccc2N1 [DCLB, N‐desmethyl clobazam]
[5]; […] µM
  stimulation of BCRP ATPase activity (activation assay): significantly stimulated
[1]
  Therapeutic plasma concentration range: 1 to 10 µM
[2]; 1 and 10 µM
  BPZ accumulation in hCMEC/D3 cells: significantly increased
[3]; 5 μM, hCMEC/D3 monolayer
  Efflux ratio (ER), hCMEC/D3 without inhibitor Ko143: 2
  Papp A-->B, hCMEC/D3 without inhibitor Ko143: 2.83 ×10⁻⁶ cm/s
  Papp B-->A, hCMEC/D3 without inhibitor Ko143: 5.66 ×10⁻⁶ cm/s
[3]; [6]
  Efflux ratio (ER), hCMEC/D3 with inhibitor Ko143: ~1
  Papp A-->B, hCMEC/D3 with inhibitor Ko143: 5.66 ×10⁻⁶ cm/s
  Papp B-->A, hCMEC/D3 with inhibitor Ko143: 5.66 ×10⁻⁶ cm/s
[3]; 5 μM, hCMEC/D3 monolayer, listed as N‐desmethyl clobazam
  Efflux ratio (ER), hCMEC/D3 without inhibitor Ko143: 2.0
[3]; 10 μM, hCMEC/D3 monolayer
  Efflux ratio (ER), hCMEC/D3 without inhibitor Ko143: 2
  Papp A-->B, hCMEC/D3 without inhibitor Ko143: 2.83 ×10⁻⁶ cm/s
  Papp B-->A, hCMEC/D3 without inhibitor Ko143: 5.66 ×10⁻⁶ cm/s
[3]; [7]
  Efflux ratio (ER), hCMEC/D3 with inhibitor Ko143: ~1
  Papp A-->B, hCMEC/D3 with inhibitor Ko143: 2.83 ×10⁻⁶ cm/s
  Papp B-->A, hCMEC/D3 with inhibitor Ko143: 2.83 ×10⁻⁶ cm/s
[3]; 10 μM, hCMEC/D3 monolayer, listed as N‐desmethyl clobazam
  Efflux ratio (ER), hCMEC/D3 without inhibitor Ko143: 2.0
[3]; at all the tested concentrations, hCMEC/D3 monolayer
  Efflux ratio (ER) without inhibitor: above 1.5
[3]; at all the tested concentrations, hCMEC/D3 monolayer, 1 μM Ko143
  Efflux ratio (ER) in the presence of Ko143: ~1
[3]; hCMEC/D3 monolayer
  transport by BCRP (conclusion of bidirectional transport assay): transports

## NC(=O)N1c2ccccc2CC(=O)c2ccccc21 [OXC, oxcarbazepine]
[5]; 40 µM
  stimulation of BCRP ATPase activity (activation assay): significantly stimulated
[2]; […] and […] µM
  BPZ accumulation in hCMEC/D3 cells: significantly increased
[3]; hCMEC/D3 monolayer
  transport by BCRP (conclusion of bidirectional transport assay): transports
[3]; human, pH 7.4
  Papp A→B at 2 h, 25 µM: 2.64 ×10⁻⁶ cm/s
  Papp A→B at 2 h, […] µM: 16.5 ×10⁻⁶ cm/s
  Papp B→A at 2 h, 25 µM: 4.72 ×10⁻⁶ cm/s
  Papp B→A at 2 h, […] µM: 39.4 ×10⁻⁶ cm/s
[3]; human, pH 7.4, with Ko143 1 μM
  Papp A→B at 2 h, 25 µM: 3.21 ×10⁻⁶ cm/s
  Papp A→B at 2 h, […] µM: 140 ×10⁻⁶ cm/s
  Papp B→A at 2 h, 25 µM: 3.59 ×10⁻⁶ cm/s
  Papp B→A at 2 h, […] µM: 169 ×10⁻⁶ cm/s
